Each structure is given as a SMILES string. Active and inactive are the calls of the source. No cut-off for these calls is given here.

Assay [1] relates to MCF7. Put plainly: Growth promoting activity in human MCF7 cells after 7 days by colorimetric methylene blue assay in presence of Toremifene. In kind it is functional, cell-based.
Assay [2] has as its system MCF7. Put plainly: Growth promoting activity in human MCF7 cells at >10 nM after 7 days by colorimetric methylene blue assay in presence of Toremifene. In kind it is functional, cell-based.

Consider `CC1(C)[C@@H]2C[C@]3(O)CC(=O)[C@@](O)(C4=COc5cc(O)ccc5[C@H]41)[C@@H]2[C@H]3O`, for which the outcome in assay [1] and in assay [2] was Active.
For the molecule `CC1(C)[C@@H]2C[C@]3(O)CC(=O)[C@@H](C4=COc5cc(O)ccc5[C@H]41)[C@@H]2[C@H]3O`, the outcome in assay [1] and in assay [2] was Active.

Values taken from ChEMBL document CHEMBL1155670, “Identification of deoxymiroestrol as the actual rejuvenating principle of "Kwao Keur", Pueraria mirifica. The known miroestrol may be an artifact” (J Nat Prod, 2000).
